{"source": "paper PMC10846865", "about": "“The Blood-Brain Barrier: Implications for Experimental Cancer Therapeutics” (Annual review of cancer biology, 2023)", "key": {"[1]": {"assay": "Spatial drug imaging by MALDI-MSI (drug distribution in tissues)", "conditions": "10 mg/kg, 30'; DHB matrix; 12 µm-thick sections, MALDI MSI 12 Tesla FT-ICR, 100 µm spatial resolution; Agar Lab"}, "[2]": {"test_system": "PI3K pathway", "set-up": "method as in Wen et al. 2019b", "conditions": "ref Wen et al. 2019b, cited from earlier work"}, "[3]": {"set-up": "method as in Mittapalli et al. 2013", "conditions": "ref Mittapalli et al. 2013; cited from earlier work"}, "[4]": {"test_system": "CNS metastases", "set-up": "method as in Long et al. 2012, Ng et al. 2022", "conditions": "ref Long et al. 2012, Ng et al. 2022; cited from earlier work"}, "[5]": {"test_system": "glioblastoma", "set-up": "method as in Iorgulescu et al. 2021", "conditions": "preclinical studies, ref Iorgulescu et al. 2021; cited from earlier work"}, "[6]": {"conditions": "cited from earlier work"}, "[7]": {"conditions": "cited from earlier work", "remark": "listed apart in the source"}, "[8]": {"test_system": "newly diagnosed glioblastoma", "set-up": "method as in Gilbert et al. 2014", "conditions": "patients with newly diagnosed glioblastoma; ref Gilbert et al. 2014; cited from earlier work"}, "[9]": {"test_system": "recurrent glioblastoma", "conditions": "cited from earlier work"}}, "data": [{"compound": "CNCc1ccc(-c2[nH]c3cc(F)cc4c3c2CCNC4=O)cc1", "note": "[Rucaparib]", "values": [{"measurement": "Drug detection on brain by MALDI or LESA", "setting": "[1]", "result": "Drug not detected on brain by MALDI or LESA"}]}, {"compound": "Nc1cc(C(F)(F)F)c(-c2cc(N3CCOCC3)nc(N3CCOCC3)n2)cn1", "note": "[buparlisib]", "values": [{"measurement": "inhibition of the PI3K pathway (molecular response)", "setting": "[2]; pharmacokinetic measures paired with molecular response", "result": "not potent enough to effectively inhibit the PI3K pathway"}, {"measurement": "unbound tumor-to-plasma ratio", "setting": "[2]", "result": "high"}]}, {"compound": "CC(C)(C)c1nc(-c2cccc(NS(=O)(=O)c3c(F)cccc3F)c2F)c(-c2ccnc(N)n2)s1", "note": "[dabrafenib]", "values": [{"measurement": "distribution across an intact BBB", "setting": "[3]", "result": "limited distribution across an intact BBB"}, {"measurement": "response in patients with CNS metastases", "setting": "[4]", "result": "clinically significant response rates"}]}, {"compound": "C[C@@H]1C[C@H]2[C@@H]3CCC4=CC(=O)C=C[C@]4(C)[C@@]3(F)[C@@H](O)C[C@]2(C)[C@@]1(O)C(=O)CO", "note": "[dexamethasone]", "values": [{"measurement": "effect on clinical benefit of immune checkpoint blockade", "setting": "[5]", "result": "limit the clinical benefit of immune checkpoint blockade in glioblastoma in a dose-dependent manner"}]}, {"compound": "CN(Cc1cnc2nc(N)nc(N)c2n1)c1ccc(C(=O)N[C@@H](CCC(=O)O)C(=O)O)cc1", "note": "[methotrexate]", "values": [{"measurement": "therapeutic window, intrathecal treatment", "setting": "[6]; intrathecal treatment of hematological malignancies, ref Kwong et al. 2009, Clement & Holle 2017", "result": "narrow therapeutic window"}]}, {"compound": "S=P(N1CC1)(N1CC1)N1CC1", "note": "[thiotepa]", "values": [{"measurement": "Kp,uu (unbound drug levels in blood and cerebrospinal fluid)", "setting": "[7]; blood vs cerebrospinal fluid, ref Heideman et al. 1989, 1993", "result": "~ 1"}, {"measurement": "half-life", "setting": "[7]; rapidly metabolized, ref Heideman et al. 1989, 1993", "result": "less than 2 hours"}, {"measurement": "dose-limiting toxicity", "setting": "[7]; ref Dunkel et al. 1998", "result": "myelosuppression"}, {"measurement": "apparent brain permeability (Papp)", "setting": "[7]; ref Heideman et al. 1989, 1993", "result": "high"}]}, {"compound": "CC[C@]1(O)C[C@H]2CN(CCc3c([nH]c4ccccc34)[C@@](C(=O)OC)(c3cc4c(cc3OC)N(C=O)[C@H]3[C@@](O)(C(=O)OC)[C@H](OC(C)=O)[C@]5(CC)C=CCN6CC[C@]43[C@@H]65)C2)C1", "note": "[vincristine]", "values": [{"measurement": "toxicity of inadvertent administration into the CSF", "setting": "[6]; ref Dyer 2001, Chotsampancharoen et al. 2016", "result": "fatalities due to severe neurotoxicity"}]}, {"compound": "bevacizumab", "values": [{"measurement": "overall survival", "setting": "[8]", "result": "no difference"}, {"measurement": "delivery of radiolabeled temozolomide as measured by PET imaging", "setting": "[9]; in vivo", "result": "decreased delivery of radiolabeled temozolomide"}, {"measurement": "vascular permeability", "setting": "[9]; not told", "result": "decrease vascular permeability"}]}]}
